# Measurements published in patent US10112922B2, “Inhibitor of bruton's tyrosine kinase” (Centaurus BioPharma Co., Ltd., priority 2014, dated 2018).
# “Also recorded” adds a separate entry of the source. Where two headings read alike, the source gives them in different places.
# Columns and labels:
# [1] = biological target: Btk kinase (Homo sapiens (Human), UniProt Q06187); assay: Btk kinase enzymatic activity assay (HTRF); type: biochemical
# Procedure: The half inhibition concentrations (IC50 values) of the compounds disclosed herein on Btk were determined at both enzymatic level and cellular level: the ability of the compounds to inhibit the activity of Btk kinase was determined in an enzymtic activity assay, and the inhibitory effect of the compounds on BCR-induced calcium flux in cells was determined in a cellular function assay.
# (§1) The compounds were gradiently diluted 3 folds starting from 1 mM with 100% DMSO (totally 11 concentrations). 4 μL of each sample with a different concentration was added into 96 μL of reaction buffer (50 mM HEPES, pH 7.4, 10 mM MgCl2, 1 mM EGTA, 0.01% Tween-20, 0.005% BAS, 2 mM DTT). […] The mixture was centrifuged to mix well, followed by adding 2.5 μL of a mixture of ATP (final concentration designated as Km) and TK petide (HTRF® KinEASE™-TK, Cisbio) to initiate the reaction (total reaction volume being 10 μL). […] The enzyme activity for each compound was determined at 11 concentrations, and IC50 values were obtained by GraFit Software 6.0 (Erithacus Software).
# [2] = biological target: ITK kinase (Homo sapiens (Human), UniProt Q08881); assay: ITK kinase enzymatic assay (same HTRF method as BTK); type: biochemical
# Chain of ITK kinase (Q08881 whole entry): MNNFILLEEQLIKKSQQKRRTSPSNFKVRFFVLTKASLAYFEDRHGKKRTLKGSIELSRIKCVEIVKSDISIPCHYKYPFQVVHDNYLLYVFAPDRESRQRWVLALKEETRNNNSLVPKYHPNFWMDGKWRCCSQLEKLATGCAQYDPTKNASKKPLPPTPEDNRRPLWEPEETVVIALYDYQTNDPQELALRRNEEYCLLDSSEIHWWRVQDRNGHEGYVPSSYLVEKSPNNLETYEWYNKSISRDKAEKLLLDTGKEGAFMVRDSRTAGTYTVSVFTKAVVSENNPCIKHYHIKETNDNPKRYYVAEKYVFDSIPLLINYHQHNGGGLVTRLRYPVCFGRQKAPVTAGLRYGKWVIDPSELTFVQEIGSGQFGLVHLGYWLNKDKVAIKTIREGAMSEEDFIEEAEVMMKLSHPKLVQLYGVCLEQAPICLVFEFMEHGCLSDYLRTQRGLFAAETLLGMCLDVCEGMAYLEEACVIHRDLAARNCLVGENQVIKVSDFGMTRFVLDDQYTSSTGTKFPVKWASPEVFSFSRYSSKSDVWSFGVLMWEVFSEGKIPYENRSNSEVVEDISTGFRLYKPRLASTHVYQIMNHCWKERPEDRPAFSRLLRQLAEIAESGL
# Procedure: as §1
# In vitro activity in inhibiting ITK kinase was determined similar to that in respect of BTK kinase.
# [3] = test system: OCI-LY-10 cells; assay: Efficacy in subcutaneously xenografted tumor model in mice; type: in vivo, CB-17 SCID mice
# Procedure: SPF grade female CB-17 SCID mice (4-5 week) were used. 0.1 ml of OCI-LY-10 cells suspended in serum-free medium (containing 5×10^6 cells, 30% Matrigel) were injected subcutaneously in both the left and the right flanks of mice. Mice were grouped and numbered when the average tumor volumes were more than 100 mm3, and the body weights and tumor volumes were determined. The mice were randomly grouped according to tumor volumes, and appropriate adjustments were made so that the average body weight in each group is on the same level. Animals were dosed orally on the same day when they were grouped, and body weights and tumor volumes were measured twice a week. Relative tumor growth (T/C) and Tumor growth inhibition (TGI) were the major test indeces.
# The equation for calculating the tumor volume is V=0.5×a×b^2, wherein v is the tumor volume, a and b are the length and the width of the tumor, respectively. The relative tumor volume (RTV) was calculated according to the tumor volume with the equation RTV=Vt/V0, wherein V0 was the tumor volume at the time when the animals were grouped, and Vt was the tumor volume at indicated time points. The equation for calculating the relative tumor proliferation rate was T/C (%)=TRTV/CRTV*100%. (TRTV was the RTV of treated group, and CRTV was the RTV of control group).
# The equation for calculating the tumor growth inhibition rate was TGI (%)=(1−(tumor volume of the treated group−tumor volume of the treated group at the time when the animals were grouped)/(tumor volume of the control group−tumor volume of the control group at the time when the animals were grouped))*100%.
# [4] = test system: type II collagen-induced arthritis; assay: Type II collagen-induced arthritis mice model; type: in vivo, DBA/1 mice
# Procedure: The mice were randomly grouped according to their arthritis scores when the onset of arthritis was observed after 4 weeks. Compounds were then administered continuously for 4 weeks, during which the arthritis scores were evaluated for each mouse and the body weights thereof were measure every other day. The criteria for evaluating the arthritis score were as follows:
# 1=erythema and mild swelling at ankle joint;
# 2=erythema and mild swelling from ankle joint to phalangeal joint or metacarpal joint;
# 3=erythema and moderate swelling from ankle joint to phalangeal joint or metacarpal joint;
# 4=erythema and severe swelling or ankylosis on whole foot including from ankle joint to phalangeal joint.
# Each paw was scored according to the above criteria, and the highest score was 16.
# [5] = Toxicity test in mice (7-day oral administration); type: in vivo, CD-1 (ICR) mice; conditions: for difference in body weight change from control group / toxicity: 1000 mg/kg oral once a day for 7 days; for Average body weight of mice / Changes (%) in mice body weight in treated group over control group: 1000 mg/kg oral once a day
# Text: Body weights and conditions of mice were monitored every day, during which all mice were not fasting.
# Chain of Btk kinase (Q06187 whole entry): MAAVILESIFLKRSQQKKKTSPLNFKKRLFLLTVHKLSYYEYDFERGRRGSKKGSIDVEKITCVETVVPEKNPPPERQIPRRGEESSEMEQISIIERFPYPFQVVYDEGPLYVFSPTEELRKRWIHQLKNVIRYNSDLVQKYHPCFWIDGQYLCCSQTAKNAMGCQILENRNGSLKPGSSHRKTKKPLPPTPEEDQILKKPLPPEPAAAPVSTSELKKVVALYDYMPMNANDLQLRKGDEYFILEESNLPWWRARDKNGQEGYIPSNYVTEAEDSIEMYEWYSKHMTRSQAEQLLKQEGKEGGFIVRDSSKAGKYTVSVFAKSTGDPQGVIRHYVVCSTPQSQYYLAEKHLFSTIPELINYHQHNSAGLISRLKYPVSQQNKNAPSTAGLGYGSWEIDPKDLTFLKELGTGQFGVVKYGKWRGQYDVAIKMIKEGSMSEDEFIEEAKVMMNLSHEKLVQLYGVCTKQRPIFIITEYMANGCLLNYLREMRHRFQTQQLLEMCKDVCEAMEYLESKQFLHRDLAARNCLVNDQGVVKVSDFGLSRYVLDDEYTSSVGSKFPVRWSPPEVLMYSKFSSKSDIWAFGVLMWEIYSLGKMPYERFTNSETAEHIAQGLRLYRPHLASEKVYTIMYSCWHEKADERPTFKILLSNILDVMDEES
SMILES,"IC50 ([1]; Table 1, read-out: Btk IC50) [nM]","IC50 ([2]; Table 1, read-out: Itk IC50) [nM]",TGI (%) Day 3 ([3]; 100 mg/kg PO QD) [%],TGI (%) Day 8 ([3]; 100 mg/kg PO QD) [%],TGI (%) Day 11 ([3]; 100 mg/kg PO QD) [%],difference in body weight change from control group [5] [%],toxicity [5],Average body weight of mice ([5]; Day 1) [g],Changes (%) in mice body weight in treated group over control group ([5]; Day 1) [%],Average body weight of mice ([5]; Day 2) [g],Changes (%) in mice body weight in treated group over control group ([5]; Day 2) [%],Average body weight of mice ([5]; Day 3) [g],Changes (%) in mice body weight in treated group over control group ([5]; Day 3) [%],Average body weight of mice ([5]; Day 4) [g],Changes (%) in mice body weight in treated group over control group ([5]; Day 4) [%],Average body weight of mice ([5]; Day 5) [g],Changes (%) in mice body weight in treated group over control group ([5]; Day 5) [%],Average body weight of mice ([5]; Day 6) [g],Changes (%) in mice body weight in treated group over control group ([5]; Day 6) [%],Average body weight of mice ([5]; Day 7) [g],other results
"C/C=C/C(=O)N1CC[C@@H](n2nc(-c3ccc(Oc4ccccc4)cc3)c(C(N)=O)c2N)C1 [Example 7, (R,E)-5-amino-1-(1-(but-2-enoyl)pyrrolidin-3-yl)-3-(4-phenoxyphenyl)-1H-pyrazole-4-carboxamide]",< 100,> 1000,33.27,19.00,11.28,–,–,–,–,–,–,–,–,–,–,–,–,–,–,–,–
"COC/C=C/C(=O)N1CC[C@@H](n2nc(-c3ccc(Oc4ccccc4)cc3)c(C(N)=O)c2N)C1 [Example 9, (R,E)-5-amino-1-(1-(4-methoxybut-2-enoyl)pyrrolidin-3-yl)-3-(4-phenoxyphenyl)-1H-pyrazole-4-carboxamide]",< 100,> 1000,45.79,39.37,43.05,< 2,no toxicity,24.4,100.0,24.6,100.0,25.1,100.3,25.6,101.1,26.4,101.8,26.9,101.7,27.2,"IC50 ([1]; Table 5, kinase selectivity test, read-out: IC50 (nM) BTK): 1.9 nM; selectivity on BTK vs ITK ([1]; calculated from IC50 values): more than 1000 folds; IC50 ([2]; Table 5, kinase selectivity test, read-out: IC50 (nM) ITK): > 1000 nM; therapeutic effect on arthritis at very low dosage ([4]; 0.3 mg/kg): good therapeutic effect; also recorded: comparable to that of 3 mg/kg of PCI-32765; arthritis (arthritis score) after administration ([4]; administered continuously for 4 weeks, FIG. 1): significantly alleviated; Changes (%) in mice body weight in treated group over control group ([5]; Day 7): 101.7%"
"CC#CC(=O)N[C@H]1CC[C@@H](n2nc(-c3ccc(Oc4ccccc4)cc3)c(C(N)=O)c2N)CC1 [Example 18, 5-amino-1-((1s,4s)-4-(but-2-ynamido)cyclohexyl)-3-(4-phenoxyphenyl)-1H-pyrazole-4-carboxamide]",< 100,> 1000,–,–,–,–,–,–,–,–,–,–,–,–,–,–,–,–,–,–,–
"NC(=O)c1c(-c2ccc(Oc3ccccc3)cc2)nn([C@@H]2CCN(C(=O)/C=C\C(=O)O)C2)c1N [Example 11, (R,Z)-4-(3-(5-amino-4-carbamoyl-3-(4-phenoxyphenyl)-1H-pyrazol-1-yl)pyrrolidin-1-yl)-4-oxobut-2-enoic Acid]",< 100,> 1000,–,–,–,–,–,–,–,–,–,–,–,–,–,–,–,–,–,–,–
"CC#CC(=O)N1CC[C@@H](n2nc(-c3ccc(Oc4ccccc4)cc3)c(C(N)=O)c2N)C1 [Example 16, (R)-5-amino-1-(1-(but-2-ynoyl)pyrrolidin-3-yl)-3-(4-phenoxyphenyl)-1H-pyrazole-4-carboxamide]",< 100,> 1000,14.97,19.53,29.98,< 2,no toxicity,24.8,100.0,25.3,101.1,25.7,100.8,25.9,100.6,26.3,99.8,26.5,98.5,26.9,TGI (%) Day 3 ([3]; 50 mg/kg PO BID): 35.97%; TGI (%) Day 8 ([3]; 50 mg/kg PO BID): 32.25%; TGI (%) Day 11 ([3]; 50 mg/kg PO BID): 44.47%; Changes (%) in mice body weight in treated group over control group ([5]; Day 7): 98.9%
"NC(=O)c1c(-c2ccc(Oc3ccccc3)cc2)nn([C@@H]2CCN(C(=O)/C=C/CO)C2)c1N [Example 15, (R,E)-5-amino-1-(1-(4-hydroxybut-2-enoyl)pyrrolidin-3-yl)-3-(4-phenoxyphenyl)-1H-pyrazole-4-carboxamide]",< 100,> 1000,–,–,–,–,–,–,–,–,–,–,–,–,–,–,–,–,–,–,–
